Data from patent US10017765B2, “Inhibitors of CACNA1A/ALPHA1A subunit internal ribosomal entry site (IRES) and methods of treating spinocerebellar ataxia type 6” (THE UNIVERSITY OF CHICAGO, priority 2013, dated 2018).
“Also recorded” adds a separate entry of the source.

Tests used:
[1] = tested on: CACNA1 A IRES pRCTF; experiment: Preliminary screening, pRCTF R-Luc/F-Luc bicistronic reporter in HEK293 cells; assay type: cell-based, human
[2] = tested on: PC12 cells; experiment: NGF-induced neurite outgrowth of transfected PC12 cells; assay type: cell-based, rat; details: NGF treatment

## COc1ccc(C[C@H]2NC[C@H](O)[C@H]2OC(C)=O)cc1 [anisomycin]
[1]
  activity of CACNA1A IRES pRCTF: has the potential to inhibit

## ω-agatoxin
[2]; PC12 cells expressing full-length α1AWT-FLAG
  α1AWT-induced neurite outgrowth: could not be blocked; also recorded: did not block
[2]; PC12 cells transfected with α1ACTWT-FLAG
  α1ACTWT-induced (enhanced) neurite outgrowth: no effect
